In ChEMBL document CHEMBL5370558, “Modifications of geldanamycin via CuAAC altering affinity to chaperone protein Hsp90 and cytotoxicity” (Eur J Med Chem, 2023):
pIC50: −log10 of the molar value. Starred links: 1 amine or outer side, 2 acyl side, 3 side chain; linkers in the order of their positions; H or OH if unused. Positions of bridges follow the written chain, without caps; N, C: chain ends. Non-standard residues stand in square brackets, D forms with d. Residues, ends and D or L forms follow the SMILES beside them. Chains are numbered I, II in the order given. Actinocin(9to1) = Cc1c2oc3c(C)ccc(C(=O)[*:1])c3nc-2c(C(=O)[*:2])c(N)c1=O; NMeV = CN[C@H](C(=O)O)C(C)C; Sar = CNCC(=O)O

What was measured:
[1] = system: SK-OV-3; experiment: Anticancer activity against human SK-OV-3 cells assessed as cell growth inhibition incubated for 72 hrs by SRB assay; format: functional, cell-based
[2] = system: SK-BR-3; experiment: Anticancer activity against human SK-BR-3 cells assessed as cell growth inhibition incubated for 72 hrs by SRB assay; format: functional, cell-based
[3] = Cytotoxicity against human HDF cells assessed as cell growth inhibition incubated for 72 hrs by SRB assay; format: toxicity, cell-based; settings: HDF cells (normal human dermal fibroblasts, NHDF)
[4] = Selectivity index, ratio of IC50 for cytotoxicity against human HDF cells to IC50 for anticancer activity against human PC-3 cells; format: toxicity, cell-based; settings: HDF cells versus PC-3 cells, read-out: Ratio IC50
[5] = system: PC-3; experiment: Anticancer activity against human PC-3 cells assessed as cell growth inhibition incubated for 72 hrs by SRB assay; format: functional, cell-based
[6] = Selectivity index, ratio of IC50 for cytotoxicity against human HDF cells to IC50 for anticancer activity against human SK-OV-3 cells; format: cell-based; settings: HDF cells versus SK-OV-3 cells, read-out: Ratio IC50
[7] = Selectivity index, ratio of IC50 for cytotoxicity against human HDF cells to IC50 for anticancer activity against human SK-BR-3 cells; format: toxicity, cell-based; settings: HDF cells versus SK-BR-3 cells, read-out: Ratio IC50

SMILES	pIC50 ([1]; Homo sapiens, SK-OV-3, 72 h)	pIC50 ([2]; Homo sapiens, SK-BR-3, 72 h)	IC50 at 72 h [3] [nM]	selectivity ratio [4]	pIC50 ([5]; Homo sapiens, PC-3, 72 h)	selectivity ratio [6]	selectivity ratio [7]	pIC50 ([1]; sk-ov-3)	pIC50 ([2]; sk-br-3)	pIC50 ([5]; pc-3)
CO[C@H]1/C=C\C=C(/C)C(=O)NC2=CC(=O)C(NCc3cn([C@@H]4O[C@H](COCc5ccccc5)[C@@H](OCc5ccccc5)[C@H](OCc5ccccc5)[C@H]4NC(C)=O)nn3)=C(C[C@@H](C)C[C@H](OC)[C@H](O)[C@@H](C)/C=C(\C)[C@@H]1OC(N)=O)C2=O	6.10	6.11	1510	1.62	6.03	1.91	1.96			
CO[C@H]1/C=C\C=C(/C)C(=O)NC2=CC(=O)C(NCc3cn(CC4CCOCC4)nn3)=C(C[C@@H](C)C[C@H](OC)[C@H](O)[C@@H](C)/C=C(\C)[C@@H]1OC(N)=O)C2=O	6.04	6.02	1840	1.9	6.01	2	1.92			
CO[C@H]1/C=C\C=C(/C)C(=O)NC2=CC(=O)C(NCc3c[nH]nn3)=C(C[C@@H](C)C[C@H](OC)[C@H](O)[C@@H](C)/C=C(\C)[C@@H]1OC(N)=O)C2=O	6.16	6.14	1770	2.57	6.16	2.57	2.42			
Cc1c2oc3c(C)ccc(C(=O)N[C@@H]4C(=O)N[C@H](C(C)C)C(=O)N5CCC[C@H]5C(=O)N(C)CC(=O)N(C)[C@@H](C(C)C)C(=O)O[C@@H]4C)c3nc-2c(C(=O)N[C@@H]2C(=O)N[C@H](C(C)C)C(=O)N3CCC[C@H]3C(=O)N(C)CC(=O)N(C)[C@@H](C(C)C)C(=O)O[C@@H]2C)c(N)c1=O [DACTINOMYCIN] (I: T[dV]P[Sar][NMeV] / II: T[dV]P[Sar][NMeV]; ester I:1-I:C, II:1-II:C; linker I:N-II:N via Actinocin(9to1))	6.21	6.17	1630	2.3	6.15	2.63	2.4			
CO[C@H]1/C=C\C=C(/C)C(=O)NC2=CC(=O)C(NCc3cn([C@@H]4O[C@H](CO)[C@@H](O)[C@H](O)[C@H]4NC(C)=O)nn3)=C(C[C@@H](C)C[C@H](OC)[C@H](O)[C@@H](C)/C=C(\C)[C@@H]1OC(N)=O)C2=O	5.73	5.76	2130	1.16	5.74	1.15	1.85			
COC1=C2C[C@@H](C)C[C@H](OC)[C@H](O)[C@@H](C)/C=C(\C)[C@H](OC(N)=O)[C@@H](OC)/C=C\C=C(/C)C(=O)NC(=CC1=O)C2=O [GELDANAMYCIN]			1050					6.19	6.24	6.22
CCN(CC)CCn1cc(CNC2=C3C[C@@H](C)C[C@H](OC)[C@H](O)[C@@H](C)/C=C(\C)[C@H](OC(N)=O)[C@@H](OC)/C=C\C=C(/C)C(=O)NC(=CC2=O)C3=O)nn1	6.28	6.23	960	1.88	6.29	1.85	1.63			
CO[C@H]1/C=C\C=C(/C)C(=O)NC2=CC(=O)C(NCc3cn(CC4OCCO4)nn3)=C(C[C@@H](C)C[C@H](OC)[C@H](O)[C@@H](C)/C=C(\C)[C@@H]1OC(N)=O)C2=O	5.76	5.75	3060	1.73	5.75	1.77	1.71			
CO[C@H]1/C=C\C=C(/C)C(=O)NC2=CC(=O)C(NCc3cn(CC4CCCCC4)nn3)=C(C[C@@H](C)C[C@H](OC)[C@H](O)[C@@H](C)/C=C(\C)[C@@H]1OC(N)=O)C2=O	5.85	5.86	2090	1.53	5.86	1.48	1.53			
CO[C@H]1/C=C\C=C(/C)C(=O)NC2=CC(=O)C(NCc3cn(Cc4ccc([N+](=O)[O-])cc4)nn3)=C(C[C@@H](C)C[C@H](OC)[C@H](O)[C@@H](C)/C=C(\C)[C@@H]1OC(N)=O)C2=O	6.13	6.13	780	1.28	6.16	1.05	1.05			
CO[C@H]1/C=C\C=C(/C)C(=O)NC2=CC(=O)C(NCc3cn(Cc4ccc(C)cc4)nn3)=C(C[C@@H](C)C[C@H](OC)[C@H](O)[C@@H](C)/C=C(\C)[C@@H]1OC(N)=O)C2=O	6.09	6.00	1170	1.38	6.07	1.43	1.18			
CO[C@H]1/C=C\C=C(/C)C(=O)NC2=CC(=O)C(NCc3cn([C@@H]4O[C@H](COC(C)=O)[C@H](OC(C)=O)[C@H](OC(C)=O)[C@H]4OC(C)=O)nn3)=C(C[C@@H](C)C[C@H](OC)[C@H](O)[C@@H](C)/C=C(\C)[C@@H]1OC(N)=O)C2=O	6.11	6.11	970	1.07	6.04	1.24	1.29			
CO[C@H]1/C=C\C=C(/C)C(=O)NC2=CC(=O)C(NCc3cn(Cc4ccc([N+](=O)[O-])o4)nn3)=C(C[C@@H](C)C[C@H](OC)[C@H](O)[C@@H](C)/C=C(\C)[C@@H]1OC(N)=O)C2=O	5.68	5.67	3820	1.78	5.67	1.83	1.8			
CO[C@H]1/C=C\C=C(/C)C(=O)NC2=CC(=O)C(NCCn3cc(-c4ccccn4)nn3)=C(C[C@@H](C)C[C@H](OC)[C@H](O)[C@@H](C)/C=C(\C)[C@@H]1OC(N)=O)C2=O	5.89	5.94	2410	1.99	5.92	1.85	2.08			
CO[C@H]1/C=C\C=C(/C)C(=O)NC2=CC(=O)C(NCc3cn(Cc4ccc(F)cc4)nn3)=C(C[C@@H](C)C[C@H](OC)[C@H](O)[C@@H](C)/C=C(\C)[C@@H]1OC(N)=O)C2=O	5.82	5.81	1690	1.07	5.80	1.11	1.09			
CO[C@H]1/C=C\C=C(/C)C(=O)NC2=CC(=O)C(NCc3cn(CC=C(C)C)nn3)=C(C[C@@H](C)C[C@H](OC)[C@H](O)[C@@H](C)/C=C(\C)[C@@H]1OC(N)=O)C2=O	5.67	5.69	3180	1.15	5.56	1.47	1.57			
CO[C@H]1/C=C\C=C(/C)C(=O)NC2=CC(=O)C(NCc3cn([C@@H]4O[C@H](CO)[C@H](O)[C@H](O)[C@H]4O)nn3)=C(C[C@@H](C)C[C@H](OC)[C@H](O)[C@@H](C)/C=C(\C)[C@@H]1OC(N)=O)C2=O	6.28	6.24	990	1.83	6.27	1.87	1.74			
CO[C@H]1/C=C\C=C(/C)C(=O)NC2=CC(=O)C(NCCn3cc(CC(=O)O)nn3)=C(C[C@@H](C)C[C@H](OC)[C@H](O)[C@@H](C)/C=C(\C)[C@@H]1OC(N)=O)C2=O	5.57	5.55	3880	1.83	5.67	1.45	1.37			
CO[C@H]1/C=C\C=C(/C)C(=O)NC2=CC(=O)C(NCc3cn(Cc4ccc(Br)cc4)nn3)=C(C[C@@H](C)C[C@H](OC)[C@H](O)[C@@H](C)/C=C(\C)[C@@H]1OC(N)=O)C2=O	6.57	6.43	650	2.1	6.51	2.41	1.76			
